Assay results taken from BindingDB's records for patent US20250282736 (ST. JUDE CHILDREN''S RESEARCH HOSPITAL, 2025).

Biological target: T1, PXR (Nuclear receptor subfamily 1 group I member 2) (Homo sapiens, UniProt O75469)
T1 sequence (O75469 whole entry): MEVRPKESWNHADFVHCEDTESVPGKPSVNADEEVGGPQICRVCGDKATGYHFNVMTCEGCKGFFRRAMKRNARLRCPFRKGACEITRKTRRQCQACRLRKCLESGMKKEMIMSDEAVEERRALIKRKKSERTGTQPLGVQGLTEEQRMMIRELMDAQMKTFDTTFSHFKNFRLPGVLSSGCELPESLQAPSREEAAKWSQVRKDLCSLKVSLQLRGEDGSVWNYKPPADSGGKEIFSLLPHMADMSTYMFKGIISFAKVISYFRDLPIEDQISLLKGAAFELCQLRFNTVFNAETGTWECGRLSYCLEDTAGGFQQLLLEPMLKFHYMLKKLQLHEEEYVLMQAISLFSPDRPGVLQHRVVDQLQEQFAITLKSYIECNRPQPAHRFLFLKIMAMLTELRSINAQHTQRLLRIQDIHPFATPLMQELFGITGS
Experiment: In Vitro Assay
Excerpt: PXR can be determined in an in vitro assay system. Such in vitro assay systems include assay such as the assays as described herein.

IC50 | Structure (SMILES)
3.8 nM | CCCC(CC)Oc1ccc(C(C)(C)C)cc1NC(=O)c1nnn(-c2cc(OC)ccc2OC)c1C (configuration not stated) [US20250282736, Compound J1]
360 nM | COc1ccc(Cl)cc1-n1nnc(C(=O)Nc2cc(C(C)(C)C)ccc2OCC(=O)O)c1C [US20250282736, Compound B25]
